Measured values as given in patent US4814340A, “1,4-diaryl alkane derivatives having insecticidal and acaricidal activity” (priority 1982, dated 1989).
Counter-ions that a name gives are not always drawn. Like-named read-outs stand apart in the source and are kept apart here.

Legend:
[1] = tested on: green rice leafhopper (female adults); test: Test 2 (Effect on Green Rice Leafhopper); type: in vivo; details: Nephotettix cincticeps, 48 hours, female adults, read-out: Mortality (%)
Description: (§1) Compounds (a) through (g) described below were tested as comparative compounds in the same manner as the compounds of the present invention. All the tests were doubly carried out. Namely, each result was expressed by an average value of two data.
Four or five seedlings of paddy rice with three leaves were bundled, and thereon the same dilution of the emulsifiable concentrate as used in Test 1 was sprayed in an amount of 3 ml. The bundle was dried and covered with a metal net cylinder, and 10 female adults of green rice leafhopper were set free in the cylinder. 48 hours after, the number of killed adults was counted.

[2] = tested on: common cutworm (third-instar larvae); test: Test 1 (Effect on Common Cutworm); type: in vivo; details: Spodoptera litura
Description: as §1
The emulsifiable concentrate of the test compound, prepared according to the method described in Formulation Example 1, was diluted with water to a specified concentration. Sweet potato leaves were sufficiently immersed in the dilution. The sweet potato leaves were dried and placed in a plastic cup having a diameter of 10 cm, and 10 third-instar larvae of common cutworm were set free in each cup. 48 hours after, the numbers of killed and living larvae were counted and the mortality was calculated.

yearling carps = test: Test 5 (Fish Toxicity); type: in vivo, carp
Description: as §1
A water tank having a width of 60 cm, a length of 30 cm and a height of 40 cm was filled with water, and 10 yearling carps having a body length of about 5 cm were set free in the tank and adapted to the environment in the tank. An acetone solution of a test compound was applied into water so as to become a concentration of 1 or 0.1 ppm in water by adding said acetone solution at a rate of one part by volume per 100 parts by volume of water. 48 hours after, the number of killed and living carps was counted and the effect of a test compound on carps was examined.

[3] = 20 ppm, 48 hours, third-instar larvae, read-out: Mortality (%)
[4] = 100 ppm, 48 hours, third-instar larvae, read-out: Mortality (%)

SMILES	mortality at 20 ppm [1]	mortality at 100 ppm [1]	mortality at 20 ppm [2, 3]	mortality at 100 ppm [2, 4]	Mortality(%) 48 Hours After (yearling carps; 0.1 ppm in water)	Mortality(%) 48 Hours After (yearling carps; 1 ppm in water)	mortality at 20 ppm ([2]; 48 h)	mortality at 100 ppm ([2]; 48 h)
CC(C)(CCCc1cccc(Oc2ccccc2)c1)c1ccc(C(=O)OC(F)(F)C(F)F)cc1 [Compound 69]	75%	100%						
CC(C)(CCCc1cccc(Oc2ccccc2)c1)c1ccc(OC(F)F)cc1 [Compound 32]	100%	100%	100%	100%				
CC(C)=Cc1ccc(C(C)(C)CCCc2cccc(Oc3ccccc3)c2)cc1 [Compound 59]	70%	100%						
CCOc1ccc(C(C)(C)CCC(C#N)c2cccc(Oc3ccccc3)c2)cc1 (centres unmarked) [Compound 15, 1-(3-Phenoxyphenyl)-1-cyano-4-(4-ethoxyphenyl)-4-methylpentane]	70%	95%						
CC(C)(CCCc1cccc(Oc2ccccc2)c1)c1ccc(C(=O)OCCF)cc1 [Compound 68]	40%	80%						
CCOc1ccc(C(C)(C)CCCc2cccc(Cc3ccccc3)c2)cc1 [Compound 14, 1-(3-benzylphenyl)-4-(4-ethoxyphenyl)-4-methylpentane]	50%	90%						
CC(C)(CCCc1cccc(Oc2ccccc2)c1)c1ccc2ccccc2c1 [Compound 18, 1-(3-Phenoxyphenyl)-4-(2-naphthyl)-4-methylpentane]	100%	100%			0%	0%		
CCOc1ccc(C(C)(C)CCCc2cccc(Oc3ccccc3)c2)cc1OCC [Compound 28]	80%	100%						
CC(C)(CCCc1cccc(Oc2ccccc2)c1)c1ccc(Cl)c(Cl)c1 [Compound 26]	50%	100%			0%	0%		
CCOc1ccc(C2(CCCc3ccc(F)c(Oc4ccccc4)c3)CCC2)cc1 [Compound 38, 1-(3-Phenoxy-4-fluorophenyl)-3-[1-(4-ethoxyphenyl)cyclobutyl]propane]	100%	100%			0%	0%		
CC(C)(CCC(C#N)c1ccc(F)c(Oc2ccccc2)c1)c1ccc(Cl)cc1 (centres unmarked) [Compound 62, 1-(3-Phenoxy-4-fluorophenyl)-1-cyano-4-(4-chlorophenyl)-4-methylpentane]	45%	100%						
CC(C)C(C)(CCCc1cccc(Oc2ccccc2)c1)c1ccc(Cl)cc1 (centres unmarked) [Compound 49]	60%	100%						
CCC(CCCc1cccc(Oc2ccccc2)c1)c1ccc(Cl)cc1 (centres unmarked) [Compound 23]	75%	100%			0%	0%		
C#CCOc1ccc(C(C)(C)CCCc2cccc(Oc3ccccc3)c2)cc1 [Compound 45]	80%	100%	80%	100%				
CNC(=O)ON=C(C)SC [(d), Methomyl, reference compound]							80%	100%
CCC(C)(CCCc1cccc(Oc2ccccc2)c1)c1ccc(Cl)cc1 (centres unmarked) [Compound 7, 1-(3-phenoxyphenyl)-4-(4-chlorophenyl)-4-methylhexane]	65%	100%						
CCOc1ccc(C(C)(C)CCCc2ccc(F)c(Sc3ccccc3)c2)cc1 [Compound 36]	100%	100%						
CC(C)(CCCc1cccc(Oc2ccccc2)c1)c1ccc(Br)cc1 [Compound 47]	75%	100%						
CC(C)(CCCc1cccc(Oc2ccccc2)c1)c1ccc(C#N)cc1 [Compound 58, 1-(3-Phenoxyphenyl)-4-(4-cyanophenyl)-4-methylpentane]	100%	100%	80%	100%				
COc1ccc(C(C)(C)CCCc2cccc(Oc3ccccc3)c2)cc1 [Compound 5, 1-(3-phenoxyphenyl)-4-(4-methoxyphenyl)-4-methylpentane]	100%	100%			0%	0%		
CC(C)(CCCc1cccc(Oc2ccccc2)c1)c1ccccc1 [Compound 17]	95%	100%	50%	100%	0%	0%		

SMILES	mortality at 20 ppm [1]	mortality at 100 ppm [1]	mortality at 20 ppm [2, 3]	mortality at 100 ppm [2, 4]	Mortality(%) 48 Hours After (yearling carps; 0.1 ppm in water)	Mortality(%) 48 Hours After (yearling carps; 1 ppm in water)	mortality at 20 ppm ([2]; 48 h)	mortality at 100 ppm ([2]; 48 h)
CCOc1ccc(C(C)(C)CCCc2cccc(C(=O)c3ccccc3)c2)cc1 [Compound 34]	50%	100%						
CC(C)(CCCc1cccc(Oc2ccccc2)c1)c1cccc(Cl)c1 [Compound 21]	100%	100%			0%	0%		
CCCOc1ccc(C(C)(C)CCCc2cccc(Oc3ccccc3)c2)cc1 [Compound 33]	100%	100%			0%	0%		
CCOc1ccc(C(C)(C)CCCc2cccc(Oc3ccc(Cl)cc3)c2)cc1 [Compound 39]	90%	100%						
Clc1ccc(C2(CCCc3cccc(Oc4ccccc4)c3)CC2(Cl)Cl)cc1 (centres unmarked) [Compound 50, 1-(3-Phenoxyphenyl)-3-[1-(4-chlorophenyl)-2,2-dichlorocyclopropyl]-propane]	50%	100%						
CC(C)(CCCc1cccc(Oc2ccccc2)c1)c1ccc(OC(F)=CCl)cc1 [Compound 37]			80%	100%				
CCOc1ccc(C(C)(C)CCCc2cccc(Sc3ccccc3)c2)cc1 [Compound 30]	70%	100%						
CCOc1ccc(C(C)(C)CCCc2cccc(Oc3ccccc3F)c2)cc1 [Compound 42]	100%	100%						
CC(C)(CCCc1cccc(Oc2ccccc2)c1)c1ccc(Oc2ccccc2)cc1 [Compound 46]	100%	100%	85%	100%				
C#CC(CCC(C)(C)c1ccc(OCC)cc1)c1ccc(F)c(Oc2ccccc2)c1 (centres unmarked) [Compound 51, 1-(3-Phenoxy-4-fluorophenyl)-1-ethynyl-4-(4-ethoxyphenyl)-4-methylpentane]	60%	90%						
CC(C)(CCCc1cccc(Oc2ccccc2)c1)c1ccc(C=C(Cl)Cl)cc1 [Compound 63]	100%	100%	70%	100%				
CC(C)(CCCc1cccc(Oc2ccccc2)c1)c1cccc(C(F)(F)F)c1 [Compound 2, 1-(3-phenoxyphenyl)-4-(3-trifluoromethylphenyl)-4-methylpentane]	80%	100%						
CC(C)(CCCc1cccc(Oc2ccccc2)c1)c1ccc(OC(F)(F)C(Cl)Cl)cc1 [Compound 25]	90%	100%						
CCOc1ccc(C(C)(C)CCCc2cccc(C(=O)c3ccccc3)c2)cc1Br [Compound 13, 1-(3-benzoylphenyl)-4-(3-bromo-4-ethoxyphenyl)-4-methylpentane]	40%	100%						
CCOc1ccc(C(C)(C)CCCc2ccc(F)c(Oc3ccccc3)c2)cc1 [Compound 3, 1-(3-phenoxy-4-fluorophenyl)-4-(4-ethoxyphenyl)-4-methylpentane]	100%	100%	100%	100%				
Oc1c(Cl)c(Cl)c(Cl)c(Cl)c1Cl [(f), PCP sodium salt, reference compound]					55%	100%		
COc1ccc(C(C)(C)CCCc2cccc(Oc3ccccc3)c2)cc1OC [Compound 22]	50%	95%						
CCOc1ccc(C(C)(C)CCCc2cccc(Oc3ccc(F)cc3)c2)cc1 [Compound 41]	100%	100%			0%	0%		
CCOc1ccc(C(C)(C)CCCc2ccc(F)c(Oc3ccc(F)cc3)c2)cc1Cl [Compound 67]	100%	100%	60%	100%	0%	0%		
CC(C)(CCCc1cccc(Oc2ccccc2)c1)c1ccc(Cl)cc1 [Compound 8, 1-(3-phenoxyphenyl)-4-(4-chlorophenyl)-4-methylpentane]	100%	100%	95%	100%	0%	0%		
